Measured values published in patent publication US4401604A, “Process for preparing thiosulfenamide derivatives of N-phosphonomethylglycine triesters” (Monsanto Company, priority 1981, dated 1983).

Legend:
Type in all cases: in vivo
Canada Thistle [1] = experiment: Post-emergence herbicidal activity, greenhouse; conditions: Table I, 4 WAT
Summary of the method: (§1)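 Plants grown 2–3 weeks in greenhouse soil pans, then atomizer-sprayed with candidate in solvent/water spray containing ~0.4% emulsifier (butylamine dodecylbenzene sulfonate/tall oil ethoxylate) at stated application rates. Injury scored versus unsprayed controls at ~2 and 4 weeks after treatment, as an activity index.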

Cocklebur [2] = experiment: Post-emergence herbicidal activity, greenhouse
Summary of the method: as §1

Downy Brome [3] = experiment: Post-emergence herbicidal activity, greenhouse
Summary of the method: as §1

Hemp Sesbania = experiment: Post-emergence herbicidal activity, greenhouse; conditions: Table II
Summary of the method: as §1

Johnsongrass [4] = experiment: Post-emergence herbicidal activity, greenhouse; conditions: Table I, 4 WAT
Summary of the method: as §1

Panicum Spp = experiment: Post-emergence herbicidal activity, greenhouse; conditions: Table II
Summary of the method: as §1

Quackgrass [5] = experiment: Post-emergence herbicidal activity, greenhouse; conditions: Table I, 4 WAT
Summary of the method: as §1

Rice = experiment: Post-emergence herbicidal activity, greenhouse; conditions: Table II
Summary of the method: as §1

Smartweed [6] = experiment: Post-emergence herbicidal activity, greenhouse
Summary of the method: as §1

Sorghum = experiment: Post-emergence herbicidal activity, greenhouse; conditions: Table II
Summary of the method: as §1

Sugar Beet = experiment: Post-emergence herbicidal activity, greenhouse; conditions: Table II
Summary of the method: as §1

Wild Buckwheat = experiment: Post-emergence herbicidal activity, greenhouse; conditions: Table II
Summary of the method: as §1

Barnyardgrass = experiment: Pre-emergent herbicidal activity; conditions: Table III; 11.2 kg/h; 2 WAT
Summary of the method: (§2)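 Seeds or vegetative propagules were pressed onto compacted top soil, then covered with soil premixed with a known amount of active ingredient. Pans were bottom-watered and kept on a wet sand bench in ordinary sunlight for about two weeks. Emerged plants were counted against untreated controls and scored as an index of average percent control.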

Canada Thistle [7] = experiment: Pre-emergent herbicidal activity; conditions: Table III; 11.2 kg/h; 2 WAT
Summary of the method: as §2

Cocklebur [8] = experiment: Pre-emergent herbicidal activity; conditions: Table III; 11.2 kg/h; 2 WAT
Summary of the method: as §2

Downy Brome [9] = experiment: Pre-emergent herbicidal activity; conditions: Table III; 11.2 kg/h; 2 WAT
Summary of the method: as §2

Johnsongrass [10] = experiment: Pre-emergent herbicidal activity; conditions: Table III; 11.2 kg/h; 2 WAT
Summary of the method: as §2

Lambsquarters = experiment: Pre-emergent herbicidal activity; conditions: Table III; 11.2 kg/h; 2 WAT
Summary of the method: as §2

Morningglory = experiment: Pre-emergent herbicidal activity; conditions: Table III; 11.2 kg/h; 2 WAT
Summary of the method: as §2

Quackgrass [11] = experiment: Pre-emergent herbicidal activity; conditions: Table III; 11.2 kg/h; 2 WAT
Summary of the method: as §2

Smartweed [12] = experiment: Pre-emergent herbicidal activity; conditions: Table III; 11.2 kg/h; 2 WAT
Summary of the method: as §2

Velvetleaf = experiment: Pre-emergent herbicidal activity; conditions: Table III; 11.2 kg/h; 2 WAT
Summary of the method: as §2

Yellow Nutsedge = experiment: Pre-emergent herbicidal activity; conditions: Table III; 11.2 kg/h; 2 WAT
Summary of the method: as §2

COC(=O)CN(CP(=O)(Oc1ccccc1)Oc1ccccc1)SSC(C)C [I, Glycine, N-[(diphenoxyphosphinyl)methyl]-N-[(1-methylethyl)dithio]-, methyl ester]
post-emergence herbicidal activity index (Canada Thistle [1]; 5.6 kg/h): 2 (50-74% control) | post-emergence herbicidal activity index (Canada Thistle [1]; 11.2 kg/h): 3 (75-99% control) | post-emergence herbicidal activity index (Cocklebur [2]; Table I, 5.6 kg/h, 4 WAT): 4 (100% control) | post-emergence herbicidal activity index (Cocklebur [2]; Table I, 11.2 kg/h, 4 WAT): 4 (100% control) | post-emergence herbicidal activity index (Cocklebur [2]; Table II, 0.056 kg/h, 2 WAT): 0 (0- 24% control) | post-emergence herbicidal activity index (Cocklebur [2]; Table II, 0.28 kg/h, 2 WAT): 0 (0- 24% control) | post-emergence herbicidal activity index (Cocklebur [2]; Table II, 1.12 kg/h, 4 WAT): 2 (50-74% control) | post-emergence herbicidal activity index (Cocklebur [2]; Table II, 5.6 kg/h, 4 WAT): 3 (75-99% control) | post-emergence herbicidal activity index (Cocklebur [2]; Table II, 11.2 kg/h, 4 WAT): 0 (0- 24% control) | post-emergence herbicidal activity index (Downy Brome [3]; Table I, 5.6 kg/h, 4 WAT): 3 (75-99% control) | post-emergence herbicidal activity index (Downy Brome [3]; Table I, 11.2 kg/h, 4 WAT): 3 (75-99% control) | post-emergence herbicidal activity index (Downy Brome [3]; Table II, 0.056 kg/h, 2 WAT): 0 (0- 24% control) | post-emergence herbicidal activity index (Downy Brome [3]; Table II, 0.28 kg/h, 2 WAT): 0 (0- 24% control) | post-emergence herbicidal activity index (Downy Brome [3]; Table II, 1.12 kg/h, 4 WAT): 1 (25-49% control) | post-emergence herbicidal activity index (Downy Brome [3]; Table II, 5.6 kg/h, 4 WAT): 2 (50-74% control) | post-emergence herbicidal activity index (Downy Brome [3]; Table II, 11.2 kg/h, 4 WAT): 2 (50-74% control) | post-emergence herbicidal activity index (Hemp Sesbania; 0.056 kg/h, 2 WAT): 0 (0- 24% control) | post-emergence herbicidal activity index (Hemp Sesbania; 0.28 kg/h, 2 WAT): 0 (0- 24% control) | post-emergence herbicidal activity index (Hemp Sesbania; 1.12 kg/h, 4 WAT): 1 (25-49% control) | post-emergence herbicidal activity index (Hemp Sesbania; 5.6 kg/h, 4 WAT): 4 (100% control) | post-emergence herbicidal activity index (Hemp Sesbania; 11.2 kg/h, 4 WAT): 0 (0- 24% control) | post-emergence herbicidal activity index (Johnsongrass [4]; 5.6 kg/h): 3 (75-99% control) | post-emergence herbicidal activity index (Johnsongrass [4]; 11.2 kg/h): 4 (100% control) | post-emergence herbicidal activity index (Panicum Spp; 0.056 kg/h, 2 WAT): 0 (0- 24% control) | post-emergence herbicidal activity index (Panicum Spp; 0.28 kg/h, 2 WAT): 1 (25-49% control) | post-emergence herbicidal activity index (Panicum Spp; 1.12 kg/h, 4 WAT): 1 (25-49% control) | post-emergence herbicidal activity index (Panicum Spp; 5.6 kg/h, 4 WAT): 3 (75-99% control) | post-emergence herbicidal activity index (Panicum Spp; 11.2 kg/h, 4 WAT): 3 (75-99% control) | post-emergence herbicidal activity index (Quackgrass [5]; 5.6 kg/h): 4 (100% control) | post-emergence herbicidal activity index (Quackgrass [5]; 11.2 kg/h): 3 (75-99% control) | post-emergence herbicidal activity index (Rice; 0.056 kg/h, 2 WAT): 0 (0- 24% control) | post-emergence herbicidal activity index (Rice; 0.28 kg/h, 2 WAT): 0 (0- 24% control) | post-emergence herbicidal activity index (Rice; 1.12 kg/h, 4 WAT): 0 (0- 24% control) | post-emergence herbicidal activity index (Rice; 5.6 kg/h, 4 WAT): 3 (75-99% control) | post-emergence herbicidal activity index (Rice; 11.2 kg/h, 4 WAT): 3 (75-99% control) | post-emergence herbicidal activity index (Smartweed [6]; Table I, 5.6 kg/h, 4 WAT): 4 (100% control) | post-emergence herbicidal activity index (Smartweed [6]; Table I, 11.2 kg/h, 4 WAT): 4 (100% control) | post-emergence herbicidal activity index (Smartweed [6]; Table II, 0.056 kg/h, 2 WAT): 0 (0- 24% control) | post-emergence herbicidal activity index (Smartweed [6]; Table II, 0.28 kg/h, 2 WAT): 0 (0- 24% control) | post-emergence herbicidal activity index (Smartweed [6]; Table II, 1.12 kg/h, 4 WAT): 3 (75-99% control) | post-emergence herbicidal activity index (Smartweed [6]; Table II, 5.6 kg/h, 4 WAT): 4 (100% control) | post-emergence herbicidal activity index (Smartweed [6]; Table II, 11.2 kg/h, 4 WAT): 3 (75-99% control) | post-emergence herbicidal activity index (Sorghum; 0.056 kg/h, 2 WAT): 0 (0- 24% control) | post-emergence herbicidal activity index (Sorghum; 0.28 kg/h, 2 WAT): 0 (0- 24% control) | post-emergence herbicidal activity index (Sorghum; 1.12 kg/h, 4 WAT): 1 (25-49% control) | post-emergence herbicidal activity index (Sorghum; 5.6 kg/h, 4 WAT): 3 (75-99% control) | post-emergence herbicidal activity index (Sorghum; 11.2 kg/h, 4 WAT): 2 (50-74% control) | post-emergence herbicidal activity index (Sugar Beet; 0.056 kg/h, 2 WAT): 0 (0- 24% control) | post-emergence herbicidal activity index (Sugar Beet; 0.28 kg/h, 2 WAT): 0 (0- 24% control) | post-emergence herbicidal activity index (Sugar Beet; 1.12 kg/h, 4 WAT): 2 (50-74% control) | post-emergence herbicidal activity index (Sugar Beet; 5.6 kg/h, 4 WAT): 4 (100% control) | post-emergence herbicidal activity index (Sugar Beet; 11.2 kg/h, 4 WAT): 3 (75-99% control) | post-emergence herbicidal activity index (Wild Buckwheat; 0.056 kg/h, 2 WAT): 0 (0- 24% control) | post-emergence herbicidal activity index (Wild Buckwheat; 0.28 kg/h, 2 WAT): 0 (0- 24% control) | post-emergence herbicidal activity index (Wild Buckwheat; 1.12 kg/h, 4 WAT): 2 (50-74% control) | post-emergence herbicidal activity index (Wild Buckwheat; 5.6 kg/h, 4 WAT): 3 (75-99% control) | post-emergence herbicidal activity index (Wild Buckwheat; 11.2 kg/h, 4 WAT): 0 (0- 24% control) | pre-emergent herbicidal activity index (Barnyardgrass): 2 (50-74% control) | pre-emergent herbicidal activity index (Canada Thistle [7]): 3 (75-100% control) | pre-emergent herbicidal activity index (Cocklebur [8]): 1 (25-49% control) | pre-emergent herbicidal activity index (Downy Brome [9]): 2 (50-74% control) | pre-emergent herbicidal activity index (Johnsongrass [10]): 0 (0-24% control) | pre-emergent herbicidal activity index (Lambsquarters): 3 (75-100% control) | pre-emergent herbicidal activity index (Morningglory): 1 (25-49% control) | pre-emergent herbicidal activity index (Quackgrass [11]): 3 (75-100% control) | pre-emergent herbicidal activity index (Smartweed [12]): 2 (50-74% control) | pre-emergent herbicidal activity index (Velvetleaf): 0 (0-24% control) | pre-emergent herbicidal activity index (Yellow Nutsedge): 3 (75-100% control)
